# Laboratory results reported in patent US20110124678A1, “TREATMENT WITH ALPHA 7-SELECTIVE LIGANDS” (Targacept, Inc., priority 2007, published 2011).
# “Also recorded” adds a separate entry of the source.
# What was measured:
# [1] = test system: db/db mice; assay: simvastatin and Compound A in db/db mice, metabolic phenotyping; type: in vivo; settings: fat db/db mice, statin study
# Method: Animal Models and Metabolic Phenotyping: […] Growth rates of mice were generated by measuring body weight twice weekly for 10 weeks. Daily food intake was measured in mice metabolic cages obtained from Fisher. To assess glucose tolerance, mice were anesthetized with 2% isoflurane and the left carotid artery and jugular vein cannulated after an overnite fast. Fasting blood glucose was assessed as the initial two measurements in the anesthetized mice. A second measurement was used to determine HbA1c levels using the […] kit from Metrika Inc. A 10 mg bolus of glucose was injected into each mouse and blood glucose measure by a drop of blood from the carotid line every 5 minutes for 40 minutes. Glucose was measured with a Precision XL glucometer. At the end of the experiment mice were euthanized by isoflurane overdose. In a second group of mice, fasted mice were anesthetized by isofluorance in a rapid induction chamber and swiftly decapitated. Trunk blood was collected in heparin and rapidly centrifuged to remove blood cells and obtain plasma. Samples were then collected for analyses. Plasma cholesterol, free fatty acids and triglycerides were determined using colorimetric assays from Wako Chemical while plasma TNFα concentration was determined using ELISA assay kits from eBioscience.
# [2] = test system: db/db mice; assay: metabolic phenotyping of obese db/db mice (PTP1B wild type or knockout) treated with α7 agonist; type: in vivo; settings: for Glucose Tolerance Test (GTT): fat db/db PTP-1B WT mice; for plasma TNFα / plasma blood glucose (BG) / plasma glycosylated hemoglobin (Hb1ac) / plasma triglycerides (TG) / body mass / food consumption: fat db/db mice; for plasma triglycerides (TG): PTP-1B wild type; for weight gain: obese db− mice, seven weeks of treatment; for body mass / food consumption: increase vs lean; for food intake decrease induced by the α7 agonist / treatment-induced decrease in plasma glucose: antagonist or inhibitor given with α7 agonist; for body weight gain / weight loss induced by the α7 agonist: antagonist or inhibitor given with α7 agonist (MLA 3 mg/kg gavage; AG-490 1 mg/kg IP)
# Excerpt: Body Weight Gain and Food Intake. Several protein tyrosine phosphatases (PTPases) such as PTP1B, LAR, SHP-2 and PTEN have been implicated in the development of insulin resistance.
# α7 agonist on Obesity. Animal Models: Parental strains of mice used in these studies were the leptin receptor deficient db/db mice on a C57BL6 background obtained from Jackson Laboratories and PTP1B-null mice on a mixed C57BL6/Balb C background from Dr. Michel Tremblay at the Cancer Institute at McGill University in Montreal, Canada. Because obese db/db mice are infertile, mice were generated as dual heterozygotes, heterozygous for both the mutant leptin receptor and the deleted PTP1B. Dual heterozygotes were interbred, producing 1:4 obese mice and 1:4 PTP-1B null mice. In this breeding configuration 1:16 were dual KO mice. In the fourth generation, mice heterozygous for both genes were bred to PTP-1B null mice heterozygous for the mutant db allele. In this breeding configuration 1:4 mice were obese and 1:8 were dual KO mice. For reasons of parsimony, heterozygotes were preferred to wild-types over controls. Dual heterozygous littermates were used as lean controls and littermates heterozygous for db were used as lean PTP1B KO controls.
# Mouse genotyping: At 3 weeks of age, DNA was obtained by tail clip. The genomic DNA from tail clip was used to screen for the presence of the mutant leptin receptor and deletion cassette of PTP-1B using the Polymerase Chain Reaction. Specific genotypes were determining by resolving PCR products with agarose gel electrophoresis. Deletion of PTP-1B was verified by Western analysis using an anti-PTP-1B antibody from Upstate Biotechnology.
# In selected cohorts, the α7 antagonist MLA was also given via gavage, concurrently, at 3 mg/kg daily. The JAK2 kinase inhibitor (AG-490) was administered intraperitoneally (IP) at 1 mg/kg daily. Fasting glucose was measured once a week after food withdrawal, with a Precision XL glucometer using tail vein bleeding. HbA1c levels were also measured from these samples with the A1C kit from Metrika, Inc. To assess glucose tolerance, the mice were anesthetized with 2% isoflurane and the left carotid artery and jugular vein cannulated after an overnight fast. A 10 mg bolus of glucose was injected intravenously (iv) via the jugular vein and blood glucose measured every 5 minutes for 40 minutes in a drop of blood from the carotid line. For measurements of blood plasma analytes, a separate group of fasted mice were anesthetized by isoflurane in a rapid induction chamber and swiftly decapitated. Blood was collected in heparin and rapidly centrifuged at 4° C. to remove cells and to obtain plasma, and the samples were frozen for later analyses. Plasma TNF-α concentrations were determined using ELISA assay kits from eBioscience and plasma triglyceride levels were determined using the L-Type TG H test (Wako Diagnostics), an in vitro assay for the quantitative determination of triglycerides in serum or plasma. All data are expressed as mean and SEM. Differences among all groups were compared by One Way ANOVA.
# [3] = biological target: T1, human α7 nicotinic receptor (Homo sapiens, UniProt P36544); assay: electrophysiology functional assay in Xenopus laevis oocytes; type: cell-based; settings: Xenopus laevis oocytes transiently expressing human α7 nicotinic receptor
# T1 construct: expressed in transfected cells; host or cells: Xenopus laevis oocytes
# [4] = difference between genotypes under treatment
# [5] = obese mice, antagonist given with α7 agonist
# T1 sequence (P36544 23-502): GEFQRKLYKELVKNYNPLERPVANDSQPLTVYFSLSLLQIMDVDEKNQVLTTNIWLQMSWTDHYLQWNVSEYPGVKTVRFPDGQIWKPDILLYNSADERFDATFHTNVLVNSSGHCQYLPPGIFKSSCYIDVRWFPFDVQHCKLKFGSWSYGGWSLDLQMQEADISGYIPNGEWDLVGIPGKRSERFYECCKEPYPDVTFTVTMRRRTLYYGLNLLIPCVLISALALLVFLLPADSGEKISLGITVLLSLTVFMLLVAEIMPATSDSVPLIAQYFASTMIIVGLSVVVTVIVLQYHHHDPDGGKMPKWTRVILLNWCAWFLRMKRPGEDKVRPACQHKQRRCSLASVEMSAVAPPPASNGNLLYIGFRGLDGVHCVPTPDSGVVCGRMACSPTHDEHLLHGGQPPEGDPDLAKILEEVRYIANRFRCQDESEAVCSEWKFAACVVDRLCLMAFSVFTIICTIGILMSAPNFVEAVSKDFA
compound,measurement,setting,value
"Cc1ccc(C(=O)N[C@@H]2C3CCN(CC3)[C@H]2Cc2cccnc2)s1 [Compound A, 5-methyl-N-[(2S,3R)-2-(pyridin-3-ylmethyl)-1-azabicyclo[2.2.2]oct-3-yl]thiophene-2-carboxamide]",% glycated hemoglobin (% Hb1ac),[1],significantly inhibited
same,body mass,[1],significantly inhibited
same,food consumption,[1],significantly inhibited
same,plasma TNFα,[1],significantly inhibited
same,plasma blood glucose (BG),[1],significantly inhibited
same,plasma cholesterol (Chol),[1],significantly inhibited
same,plasma triglycerides (TG),[1],significantly inhibited
same,Glucose Tolerance Test (GTT),[2],normalize insulin resistance glucose tolerance test
same,plasma TNFα,[2],reduce pro-inflammatory cytokines
same,plasma blood glucose (BG),[2],normalize glucose levels
same,plasma glycosylated hemoglobin (Hb1ac),[2],decrease glycated hemoglobin
same,plasma triglycerides (TG),[2],reduce triglycerides
same,weight gain,[2],reduce weight gain
"O=C(N[C@@H]1C2CCN(CC2)[C@H]1Cc1cccnc1)c1ccc(-c2ccccn2)s1 [Compound B, (2S,3R)—N-(2-((3-pyridinyl)methyl)-1-azabicyclo[2.2.2]oct-3-yl)-5-(2-pyridinyl)thiophene-2-carboxamide]",Glucose Tolerance Test (GTT),[2],normalize insulin resistance glucose tolerance test
same,plasma TNFα,[2],reduce pro-inflammatory cytokines; also recorded: significantly inhibited
same,plasma blood glucose (BG),[2],normalize glucose levels; also recorded: significantly inhibited
same,plasma glycosylated hemoglobin (Hb1ac),[2],decrease glycated hemoglobin; also recorded: significantly inhibited
same,plasma triglycerides (TG),[2],reduce triglycerides; also recorded: significantly inhibited
same,body mass,[2],significantly inhibited
same,food consumption,[2],significantly inhibited
same,weight gain,[2],reduce weight gain
"O=C(N[C@@H]1C2CCN(CC2)[C@H]1Cc1cccnc1)c1cc2ccccc2o1 (single isomer, unassigned) [Compound C]","body mass, fat wild type vs fat PTP-1B KO",[2]; [4],no significant difference
same,"food consumption, fat wild type vs fat PTP-1B KO",[2]; [4],no significant difference
same,"plasma blood glucose, fat wild type vs fat PTP-1B KO",[2]; [4],no significant difference
same,Glucose Tolerance Test (GTT),[2],normalize insulin resistance glucose tolerance test; also recorded: significant increase in deposition
same,plasma TNFα,[2],reduce pro-inflammatory cytokines; also recorded: significantly inhibited
same,plasma blood glucose (BG),[2],normalize glucose levels; also recorded: significantly inhibited
same,plasma glycosylated hemoglobin (Hb1ac),[2],decrease glycated hemoglobin; also recorded: significantly inhibited
same,plasma triglycerides (TG),[2],reduce triglycerides; also recorded: significantly inhibited
same,body mass,[2],significantly inhibited
same,food consumption,[2],significantly inhibited
same,weight gain,[2],reduce weight gain
same,Emax,[3],> 50%
"N#C/C(=C/c1ccc(O)c(O)c1)C(=O)NCc1ccccc1 [AG-490, reference compound]",food intake decrease induced by the α7 agonist,[2]; obese mice,significantly inhibited; also recorded: partially inhibits effects of Compound A
same,treatment-induced decrease in plasma glucose,[2]; obese mice,significantly prevented
same,body weight gain / weight loss induced by the α7 agonist,[2]; obese mice,significantly inhibited
"CCN1C[C@]2(COC(=O)c3ccccc3N3C(=O)C[C@H](C)C3=O)CC[C@H](OC)[C@@]34[C@@H]5C[C@H]6[C@H](OC)[C@@H]5[C@](O)(C[C@@H]6OC)[C@](O)([C@@H](OC)[C@H]23)[C@@H]14 [MLA, reference compound]",decrease of plasma TNF-α by the α7 agonist,[2]; [5],blocked
same,increased insulin sensitivity induced by the α7 agonist,[2]; [5],abrogated; also recorded: suppressed
same,normalization of triglycerides by the α7 agonist,[2]; [5],blocked
same,food intake decrease induced by the α7 agonist,[2]; obese mice,no significant differences
same,treatment-induced decrease in plasma glucose,[2]; obese mice,no significant decrease in plasma glucose
same,body weight gain / weight loss induced by the α7 agonist,[2]; obese mice,no significant differences
